Consider three compounds from US20040171688A1, “Carboxylic acids and derivatives thereof and pharmaceutical compositions containing them” (priority 1997, published 2004).

pEC50, pKd: −log10 of the molar value.

In test [1] the target is T1, HNF-4α (Rattus norvegicus, UniProt P22449).
T1 construct: GST-HNF-4α(LBD) fusion protein consisting of amino acids 96-455 of wild type HNF-4α fused to GST; fused on or other part: Glutathione-S-transferase (GST) at the N-terminus of the LBD construct; 6-histidine tag on the full-length construct
T1 sequence (P22449 105-464 isoform P22449-2 limits assumed): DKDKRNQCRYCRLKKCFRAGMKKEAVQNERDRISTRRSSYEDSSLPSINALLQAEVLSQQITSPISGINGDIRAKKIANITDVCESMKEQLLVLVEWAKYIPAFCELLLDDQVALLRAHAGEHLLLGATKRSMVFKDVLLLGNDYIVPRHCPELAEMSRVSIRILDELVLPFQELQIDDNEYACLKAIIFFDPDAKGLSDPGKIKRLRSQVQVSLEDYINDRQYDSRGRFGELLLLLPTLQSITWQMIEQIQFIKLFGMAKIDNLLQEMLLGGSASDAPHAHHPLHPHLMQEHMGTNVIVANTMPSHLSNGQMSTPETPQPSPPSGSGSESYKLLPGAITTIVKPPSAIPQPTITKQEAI
The experiment in a line: Ligand binding assay with [3H]palmitoyl(16:0)-CoA on recombinant GST-HNF-4α(LBD) or His-HNF-4α. As to the method:
a. […] The respective recombinant proteins are incubated to equilibrium with [^3H]palmitoyl(16:0)-CoA (0.05 μCi) and with increasing nonlabeled palmitoyl(16:0)-CoA as indicated.
b. […] The respective recombinant proteins are incubated with 8 nM of [^3H]palmitoyl(16:0)-CoA (60 Ci/mmol) and with increasing nonlabeled myristoyl(14:0)-CoA as indicated. Percent bound refers to radiolabeled [^3H]palmitoyl(16:0)-CoA in the bound fraction. […] Percent bound refers to radiolabeled [^3H]palmitoyl(16:0)-CoA in the bound fraction.
Rat HNF-4α1 cDNA(pLEN4S)^1 was subcloned into the glutathione-S-transferase (GST) encoding pGEX-2T plasmid (Pharmacia) and the resultant plasmid was cleaved with smaI and AccI and religated to yield the GST-HNF-4α(LBD) fusion plasmid. […] The full length HNF-4α1 cDNA cloned into 6His-pET11d vector was expressed in E.coli BL21 (DE3)plysS.
Recombinant GST-HNF-4α(LBD) (100 pmol) or His-HNF-4α (100 pmol) were incubated for 60 min at 22° C. with [^3H]palmitoyl(16:0)-CoA (American RadiolabeledChemicals) in 100 μl of 10 mM phosphate buffer (pH 7.4). Competitor ligands or solvent carrier were added as indicated. Free and HNF-4α bound ^3[H]palmitoyl(16:0)-CoA were separated by […] and bound ligand was quantified by liquid scintillation counting. Nonspecific binding of [^3H]palmitoyl(16:0)-CoA was determined by its binding to the GST moiety or to carbonic anhydrase as nonrelevant protein.
Binding was exemplified with either the ligand binding domain of HNF-4α fused to glutathione-s-transferase (GST-HNF-4α(LBD)) or the full length HNF-4α protein tagged by 6 histidines (His-HNF-4α).

Test [2] has as its target T2, HNF-4α (Rattus norvegicus, UniProt P22449).
T2 sequence (P22449 1-464 isoform P22449-2): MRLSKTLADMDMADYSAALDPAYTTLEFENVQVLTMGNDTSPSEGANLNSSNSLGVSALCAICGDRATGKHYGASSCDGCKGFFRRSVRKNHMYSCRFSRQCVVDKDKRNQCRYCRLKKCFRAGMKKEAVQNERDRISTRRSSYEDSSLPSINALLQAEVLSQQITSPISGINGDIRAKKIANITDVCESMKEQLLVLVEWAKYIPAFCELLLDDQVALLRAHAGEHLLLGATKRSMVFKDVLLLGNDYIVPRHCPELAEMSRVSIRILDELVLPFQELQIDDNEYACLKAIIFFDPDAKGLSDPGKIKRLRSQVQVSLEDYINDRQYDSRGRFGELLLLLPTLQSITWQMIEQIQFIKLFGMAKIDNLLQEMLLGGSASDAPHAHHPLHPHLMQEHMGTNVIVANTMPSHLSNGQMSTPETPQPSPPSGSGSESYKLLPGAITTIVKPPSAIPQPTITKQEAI
Description: In vitro transcription assay induced by His-HNF-4α with HeLa nuclear extract. It is filed as biochemical. Details: The full length HNF-4α1 cDNA cloned into 6His-pET11d vector was expressed in E.coli BL21 (DE3)plysS; 6His; made in house; host or cells: E. coli BL21 (DE3)plysS. As to the method:
a. Representative experiments showing in vitro transcription of the test template in the presence of increasing concentrations of His-HNF-4I and in the absence (lanes 1-3, 7-9) or presence of 10 μM of added palmitoyl(16:0)-CoA (lanes 4-6) or stearoyl(18:0)-CoA (lanes 10,11) as indicated. Correctly initiated transcripts of the test and control templates are denoted by (→) and ? , respectively.
b. HNF-4I-induced in vitro transcription in the absence (empty bars) or presence of 10 μM each of added palmitoyl(16:0)-CoA (filled bars) or stearoyl(18:0)-CoA (hatched bars). Fold transcription indicates the ratio of specific transcript produced by the test template over transcript from the control template normalized to the ratio observed without HNF-4a. The figure summarizes 5 independent experiments for each acyl-CoA. *-Significant as compared with the respective value in the absence of added ligand.
Reaction mixture contained 20 mM Hepes-KOH (pH 7.9), 5 mM MgCl2, 60 mM KCl, 8% glycerol, 2 mM DTT, 1 mM 3′-O-methyl-GTP, 10 units of T1RNase, 20 units of RNasin, 0.5 μg sonicated salmon sperm DNA and His-HNF-4α and test ligand as indicated. The mixture was preincubated for 30 min at 22° C. followed by adding 10 ng of pAdML200 control template consisting of the adenovirus major-late promoter (−400/+10) linked to a 200 bp G-less cassette and 200 ng of the test template consisting of three C3P copies of the apo CIII promoter sequence (−87/−66) upstream to a synthetic ovalbumin TATA box promoter in front of a 377 bp-G-less cassette. The mixture was further preincubated for 10 min at 22° C. followed by adding 40 μg of HeLa nuclear extract with additional preincubation for 30 min at 30° C. 0.5-mM ATP, 0.5 mM CTP, 25 μM UTP, and 10 μCi of [α-^32P]UTP (s.a. […], Amersham) were then added and the complete reaction mixture was incubated for 45 min at 30° C. in a final volume of 25 μl. The reaction was terminated by adding 175 μl of stop mix (0.1 M sodium acetate (pH 5.2), 10 mM EDTA, 0.1% SDS, 200 μg/ml tRNA) followed by phenol extraction and ethanol precipitation. RNA was resuspended in sample buffer containing 80% formamide and 10 mM Tris-HCl (pH 7.4) and separated on 5% polyacrylamide gel containing 7 M urea in TBE. Correctly initiated transcripts were quantitated by PhosphorImager analysis. The test DNA template was constructed by inserting into pC2AT19 plasmid a PCR-amplified oligonucleotide prepared by using the (C3P)3-TK-CAT plasmid as template and consisting of three copies of the C3P element of the Apo CIII promoter sequence (−87/−66) having an ECoRI and SSTI sites at the 5′ and 3′ ends, respectively. The resultant plasmid was cleaved with sphI and sacI and ligated to a synthetic oligonucleotide (5′-CGAGGTCCAC-[…]-3′) containing sequences of the HSV thymidine kinase promoter (−41/−29) and of the chicken ovalbumin promoter (−33/−21).
The effect of agonistic and antagonistic HNF-4α-ligands was further evaluated by analyzing the in vitro transcription rate, catalyzed by added HeLa nuclear extract and induced by recombinant HNF-4α, of a test template consisting of a 377 bp G-less cassette promoted by sequences of the HSV thymidine kinase and chicken ovalbumin promoters and enhanced by three C3P copies of the apo Clil gene promoter. Transcriptional activation by HNF-4α was evaluated in the presence and in the absence of added representative long chain fatty acyl-CoAs. […]

The conditions of test [3]: dietary fatty acid; cited from earlier work.
Test [4] addresses T2, HNF-4α. The experiment in a line: Transfection assay: COS-7 cells cotransfected with (C3P)3-TK-CAT reporter and pSG5-HNF-4α. Conditions: free fatty acids added to culture medium of COS-7 cells (FIG. 4a). Details: expressed in transfected cells; host or cells: COS-7. It is filed as cell-based. The procedure: a. […] Fold induction of CAT activity by transfected HNF-4I is determined by evaluating CAT activity in the presence of pSG5-HNF-4I as compared with pSG5 plasmid and as function of respective fatty acids added to the culture medium as indicated. The figure summarizes 3-4 independent experiments for each fatty acid. Mean ± S.E.
b. […] Fold induction refers to CAT activity in cells incubated with 3,3,12,12-tetramethyl-tetradecanedioic acid (∘), 3,3,14,14-tetramethyl-hexadecanedioic acid (□) and 3,3,16,16-tetramethyl-octadecanedioic acid (Δ) proligands normalized to the activity in cells incubated in the absence of added proligands.
COS-7 cells cotransfected for 6 h with the (C3P)3-TK-CAT reporter plasmid (5 μg) and with either the pSG5-HNF-4α expression plasmid ([…]) or the pSG5 plasmid (0.025 μg) added by calcium phosphate precipitation were cultured in serum free medium with fatty acids (complexed with albumin in a molar ratio of 6:1) added as indicated. β-Galactosidase expression vector pRSGAL (1 μg) added to each precipitate served as an internal control for transfection. The (C3P)3-TK-CAT construct was prepared by inserting a synthetic oligonucleotide encompassing the (−87/−66) Apo CIII promoter sequence (5′-[…]-3′) flanked by HindIII restriction site into pBLCAT2^47 upstream of the −105 bp thymidine kinase promoter. The construct containing three copies of the synthetic oligonucleotide in the direct orientation was selected and confirmed by sequencing.
The intracellular effect of HNF-4α ligands on HNF-4α mediated transcription was evaluated in COS-7 cells cotransfected with an expression vector for HNF-4α and with a CAT reporter plasmid driven by a thymidine kinase promoter and enhanced by one to three C3P copies of the apo CIII gene promoter. Transfected cells were incubated in the presence of free fatty acids and xenobiotic amphipathic carboxylates representing agonistic or antagonistic HNF-4α proligands.

For test [5] the following is noted: dietary fatty acid; cited from earlier work. This is another data set of the same source.

As for `CCCCCCCCCCCCCCCC(=O)SCCNC(=O)CCNC(=O)[C@H](O)C(C)(C)COP(=O)(O)OP(=O)(O)OC[C@H]1O[C@@H](n2cnc3c(N)ncnc32)[C@H](O)[C@@H]1OP(=O)(O)O` [Palmitoyl(16:0)-CoA, reference compound], at HNF-4α [1] (Scatchard analysis), the maximal binding was 1 mol palmitoyl(16:0)-CoA/mol HNF-4I. Besides, the “binding ratio at saturation” value at HNF-4α [1] (at saturation (FIG. 1A)) is reported as ~1 mole of fatty acyl-CoA/mole of HNF-4α. For the same compound, on HNF-4α [1] (competition with 8 nM [3H]palmitoyl(16:0)-CoA, GST-HNF-4α(LBD) or His-HNF-4α, read-out: EC50 (50% specific competition)), the pEC50 was 5.59. Moreover, the pKd at HNF-4α [1] (saturation binding of [3H]palmitoyl(16:0)-CoA, Scatchard analysis, GST-HNF-4α(LBD) or His-HNF-4α, read-out: dissociation constant (Kd)) was 5.59. The “effect on HNF-4α induced in vitro transcription” value at HNF-4α [2] (10 μM added acyl-CoA (FIG. 3)) is reported as “activated”. Also, on HNF-4α [2] (summary statement of Example 4), the “HNF-4α transcriptional activity, agonist/antagonist character (summary)” value was “activators”.
On to `CCCCCCCCCCCCCC(=O)O` [myristic(14:0), myristic(14:0) acid], for which the “plasma VLDL-, LDL- and HDL-cholesterol” value in test [3] is recorded as “increase”. Further, the “effect on HNF-4α dependent transcription (CAT activity)” value on HNF-4α [4] is reported as “dose dependent activation”.
Consider `CCCCCCCCCCCCCCCCCC(=O)O` [stearic(18:0), stearic(18:0) acid], for which the blood lipids result in test [3] is given as “lowering”. In test [5], the “factor VII content and blood coagulability” value is listed as “decrease”. On HNF-4α [4], the “effect on HNF-4α dependent transcription (CAT activity)” value is listed as “suppressive”.
